According to US20230065740A1, “CYCLIN-DEPENDENT KINASE INHIBITORS” (SPV THERAPEUTICS INC., priority 2018, published 2023):
Read-outs that look alike come from different tables or passages of the source.

Experiments:
[1] = biological target: T1, CDK6-CYCLIND3 (Homo sapiens, UniProt Q00534); test: Microfluidic LabChip kinase inhibition assay, CDK6-CyclinD3; type: biochemical; conditions: 300 μM ATP
T1 construct: purchased Carna

[2] = biological target: CDK4-CYCLIND1 (Homo sapiens, UniProt P11802); test: Microfluidic LabChip kinase inhibition assay, CDK4-CyclinD1; conditions: 200 μM ATP
Chain of CDK4-CYCLIND1 (P11802 whole entry): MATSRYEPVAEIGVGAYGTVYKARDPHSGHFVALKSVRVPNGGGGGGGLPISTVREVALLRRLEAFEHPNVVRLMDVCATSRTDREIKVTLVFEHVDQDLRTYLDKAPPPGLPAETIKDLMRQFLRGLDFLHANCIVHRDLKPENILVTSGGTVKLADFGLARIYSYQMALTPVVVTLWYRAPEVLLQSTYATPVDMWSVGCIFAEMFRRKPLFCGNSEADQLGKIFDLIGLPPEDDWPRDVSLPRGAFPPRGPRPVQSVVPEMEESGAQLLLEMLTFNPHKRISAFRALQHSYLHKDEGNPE
Chain of CDK4-CYCLIND1 (P24385 whole entry partner): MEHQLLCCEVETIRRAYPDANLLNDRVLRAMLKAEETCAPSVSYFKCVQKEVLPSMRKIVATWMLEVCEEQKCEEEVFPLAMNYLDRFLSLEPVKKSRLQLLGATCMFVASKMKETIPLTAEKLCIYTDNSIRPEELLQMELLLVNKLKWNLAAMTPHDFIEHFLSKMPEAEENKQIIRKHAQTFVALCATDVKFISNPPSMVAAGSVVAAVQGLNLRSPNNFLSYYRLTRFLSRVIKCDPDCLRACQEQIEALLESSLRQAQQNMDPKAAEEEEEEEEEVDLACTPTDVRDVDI
Method: Inhibition assays were performed using microfluidic LabChip 300 Drug Discovery System from Caliper Life Sciences. […] The assay has a total volume of 10 μL consisting of 5 μL of enzyme and buffer and 5 μL of substrate and buffer. The test compounds were diluted in 100% dimethylsulfoxide (DMSO) using 3-fold dilution steps. […] Compounds were tested in a single well for each dilution and the final concentration of DMSO was maintained at 1%.
The assay buffer contained 100 mM HEPES, pH 7.5, 0.01% Triton X-100, 0.1% bovine serum albumin (BSA), 5 mM MgCl2; 1 mM dithiothreitol (DTT), 10 μM sodium orthovanadate, and 10 μM β-glycerophosphate.
The assay was conducted by adding 5 μL of enzyme, adenosine triphosphate (ATP) and buffer to an assay plate. A 100 nL aliquot of the diluted compounds were added to the plate. The assay was initiated by the addition of 5 μL of phosphoenolpyruvate substrate (PEP) in buffer. […] The reaction was terminated by the addition of EDTA. The plates were analyzed using a Caliper LabChip 3000.

[3] = Table 2, 2 nM enzyme, read-out: CDK6 IC50
[4] = CDK4 IC50 (μM), Table 2, 1 nM enzyme
[5] = Table 3a, read-out: CDK6 CyclinD3 IC50
[6] = Table 3b, read-out: CDK6 CyclinD3 IC50
[7] = CDK4 CyclinD1 IC50 (μM), Table 3a, second value in parentheses on the next line
[8] = CDK4 CyclinD1 IC50 (μM), Table 3b, second value in parentheses on the next line

T1 sequence (Q00534 whole entry): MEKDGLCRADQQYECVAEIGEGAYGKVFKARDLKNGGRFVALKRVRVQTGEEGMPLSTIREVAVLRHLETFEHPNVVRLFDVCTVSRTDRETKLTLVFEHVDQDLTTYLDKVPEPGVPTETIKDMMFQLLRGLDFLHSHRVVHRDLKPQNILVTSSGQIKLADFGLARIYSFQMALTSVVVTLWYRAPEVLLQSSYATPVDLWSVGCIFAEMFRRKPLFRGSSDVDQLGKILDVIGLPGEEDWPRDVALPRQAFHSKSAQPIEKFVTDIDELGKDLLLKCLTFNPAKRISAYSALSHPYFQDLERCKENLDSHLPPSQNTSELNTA
T1 sequence (P30281 whole entry partner): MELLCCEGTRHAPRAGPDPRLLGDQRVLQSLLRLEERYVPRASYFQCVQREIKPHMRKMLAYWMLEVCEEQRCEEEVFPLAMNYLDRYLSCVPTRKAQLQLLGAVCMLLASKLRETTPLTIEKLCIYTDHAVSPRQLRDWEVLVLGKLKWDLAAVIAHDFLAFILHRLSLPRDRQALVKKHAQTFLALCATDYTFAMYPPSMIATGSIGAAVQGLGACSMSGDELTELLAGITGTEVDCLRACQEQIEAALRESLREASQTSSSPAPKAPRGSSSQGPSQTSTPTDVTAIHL

Structure (SMILES)	IC50 [1, 3] [nM]	IC50 [2, 4] [µM]	IC50 [1, 5] [nM]	IC50 [1, 6] [nM]	IC50 [2, 7] [µM]	IC50 [2, 8] [µM]
CC(C)N1CCN(c2ccc(Nc3ncc4c(n3)N(C3CCCC3)C3(CCNC3=O)C4)cn2)CC1 (stereo not drawn) [Compound C55, 7′-cyclopentyl-2′-((6-(4-isopropylpiperazin-1-yl)pyridin-3-yl)amino)-5′,7′-dihydrospiro[pyrrolidine-3,6′-pyrrolo[2,3-d]pyrimidin]-2-one]	221	0.053				
O=C1NCCC12Cc1cnc(Nc3ccc(N4CCOCC4)c(F)c3)nc1N2C1CCCC1 (stereo not drawn) [Compound C58, 7′-cyclopentyl-2′-((3-fluoro-4-morpholinophenyl)amino)-5′,7′-dihydrospiro[pyrrolidine-3,6′-pyrrolo[2,3-d]pyrimidin]-2-one]	932	0.222				
CN(C)[C@H]1CCN(c2ccc(Nc3ncc4c(n3)N(C3CCCC3)C(=O)C43CCNC3=O)cc2F)C1 (stereo partly drawn) [Compound C105, 7′-cyclopentyl-2′-((4-((S)-3-(dimethylamino)pyrrolidin-1-yl)-3-fluorophenyl)amino)spiro[pyrrolidine-3,5′-pyrrolo[2,3-d]pyrimidine]-2,6′(7′H)-dione]	29700	11.8				
CN1C(=O)CC2(Cc3cnc(Nc4ccc(N5CCNCC5)cn4)nc3N2C2CCCC2)C1=O (stereo not drawn) [Compound C65, 7′-cyclopentyl-1-methyl-2′-((5-(piperazin-1-yl)pyridin-2-yl)amino)-5′,7′-dihydrospiro[pyrrolidine-3,6′-pyrrolo[2,3-d]pyrimidine]-2,5-dione]	15400	12.3				
CN1CCN(c2ccc(Nc3ncc4c(n3)N(C3CCCC3)C3(CCNC3=O)C4)cc2F)CC1 (stereo not drawn) [Compound C48, 7′-cyclopentyl-2′-((3-fluoro-4-(4-methylpiperazin-1-yl)phenyl)amino)-5′,7′-dihydrospiro[pyrrolidine-3,6′-pyrrolo[2,3-d]pyrimidin]-2-one]	129	0.0161				
CN1CCN(c2ccc(Nc3ncc4c(n3)N(C3CCCC3)C3(CCNC3=O)C4)cc2F)CC1 (single isomer, unassigned) [Compound C205, 7′-cyclopentyl-2′-((3-fluoro-4-(4-methylpiperazin-1-yl)phenyl)amino)-5′,7′-dihydrospiro[pyrrolidine-3,6′-pyrrolo[2,3-d]pyrimidin]-2-one]			179	179	0.0413	0.0413
O=C1CC2(Cc3cnc(Nc4ccc(N5CCNCC5)cn4)nc3N2C2CCCC2)C(=O)N1 (stereo not drawn) [Compound C74, 7′-cyclopentyl-2′-((5-(piperazin-1-yl)pyridin-2-yl)amino)-5′,7′-dihydrospiro[pyrrolidine-3,6′-pyrrolo[2,3-d]pyrimidine]-2,5-dione]	84500	22.7				
COc1ccc(CN2CCC3(Cc4cnc(Nc5ccc(N6CCN(C)CC6)cn5)nc4N3C3CCCC3)C2=O)cc1 (stereo not drawn) [Compound C30, 7′-cyclopentyl-1-(4-methoxybenzyl)-2′-((5-(4-methylpiperazin-1-yl)pyridin-2-yl)amino)-5′,7′-dihydrospiro[pyrrolidine-3,6′-pyrrolo[2,3-d]pyrimidin]-2-one]	> 30000	8.21				
CN1CCN(c2ccc(Nc3ncc4c(n3)N(C3CCCC3)C3(CC(=O)N(C)C3=O)C4)nc2)CC1 (stereo not drawn) [Compound C66, 7′-cyclopentyl-1-methyl-2′-((5-(4-methylpiperazin-1-yl)pyridin-2-yl)amino)-5′,7′-dihydrospiro[pyrrolidine-3,6′-pyrrolo[2,3-d]pyrimidine]-2,5-dione]	> 30000	29.8				
O=C1CC2(Cc3cnc(Nc4ccc(OCCN5CCCC5)nc4)nc3N2C2CCCC2)C(=O)N1 (stereo not drawn) [Compound C90, 7′-cyclopentyl-2′-((6-(2-(pyrrolidin-1-yl)ethoxy)pyridin-3-yl)amino)-5′,7′-dihydrospiro[pyrrolidine-3,6′-pyrrolo[2,3-d]pyrimidine]-2,5-dione]	255	0.072				
O=C1NCCC12Cc1cnc(Nc3ccc(N4CCNCC4)nc3)nc1N2C1CCCC1 (stereo not drawn) [Compound C53, 7′-cyclopentyl-2′-((6-(piperazin-1-yl)pyridin-3-yl)amino)-5′,7′-dihydrospiro[pyrrolidine-3,6′-pyrrolo[2,3-d]pyrimidin]-2-one]	260	0.0658				
CC(C)N1CCN(c2ccc(Nc3ncc4c(n3)N(C3CCCC3)C3(CCNC3=O)C4)cc2)CC1 (stereo not drawn) [Compound C46, 7′-cyclopentyl-2′-((4-(4-isopropylpiperazin-1-yl)phenyl)amino)-5′,7′-dihydrospiro[pyrrolidine-3,6′-pyrrolo[2,3-d]pyrimidin]-2-one]	394	0.0701				
CN1CCN(c2ccc(Nc3ncc4c(n3)N(C3CCCC3)C3(CC(=O)NC3=O)C4)c(F)c2)CC1 (stereo not drawn) [Compound C87, 7′-cyclopentyl-2′-((2-fluoro-4-(4-methylpiperazin-1-yl)phenyl)amino)-5′,7′-dihydrospiro[pyrrolidine-3,6′-pyrrolo[2,3-d]pyrimidine]-2,5-dione]	78100	14.9				
O=C1NCCC12Cc1cnc(Nc3ccc(N4CCNCC4)c(F)c3)nc1N2C1CCCC1 (single isomer, unassigned) [Compound C204, 7′-cyclopentyl-2′-((3-fluoro-4-(piperazin-1-yl)phenyl)amino)-5′,7′-dihydrospiro[pyrrolidine-3,6′-pyrrolo[2,3-d]pyrimidin]-2-one]			11800	11800	2.03	2.03
O=C1CC2(Cc3cnc(Nc4ccc(N5CCNCC5)cc4)nc3N2C2CCCC2)C(=O)N1 (stereo not drawn) [Compound C77, 7′-cyclopentyl-2′-((4-(piperazin-1-yl)phenyl)amino)-5′,7′-dihydrospiro[pyrrolidine-3,6′-pyrrolo[2,3-d]pyrimidine]-2,5-dione]	131	0.0251				
CN1CCN(c2ccc(Nc3ncc4c(n3)N(C3CCCC3)C3(CCN(Cc5ccccc5)C3=O)C4)cc2)CC1 (stereo not drawn) [Compound C24, 1-benzyl-7′-cyclopentyl-2′-((4-(4-methylpiperazin-1-yl)phenyl)amino)-5′,7′-dihydrospiro[pyrrolidine-3,6′-pyrrolo[2,3-d]pyrimidin]-2-one]	> 30000	12.3				
CC(C)N1CCN(c2ccc(Nc3ncc4c(n3)N(C3CCCC3)C3(CC(=O)N(C)C3=O)C4)cc2)CC1 (stereo not drawn) [Compound C70, 7′-cyclopentyl-2′-((4-(4-isopropylpiperazin-1-yl)phenyl)amino)-1-methyl-5′,7′-dihydrospiro[pyrrolidine-3,6′-pyrrolo[2,3-d]pyrimidine]-2,5-dione]	346	0.159				
CC(C)N1CCN(c2ccc(Nc3ncc4c(n3)N(C3CCCC3)C3(CC(=O)NC3=O)C4)nc2)CC1 (stereo not drawn) [Compound C76, 7′-cyclopentyl-2′-((5-(4-isopropylpiperazin-1-yl)pyridin-2-yl)amino)-5′,7′-dihydrospiro[pyrrolidine-3,6′-pyrrolo[2,3-d]pyrimidine]-2,5-dione]	139	0.103				
O=C1CC2(Cc3cnc(Nc4ccc(N5CCNCC5)c(F)c4)nc3N2C2CCCC2)C(=O)N1 (stereo not drawn) [Compound C80, 7′-cyclopentyl-2′-((3-fluoro-4-(piperazin-1-yl)phenyl)amino)-5′,7′-dihydrospiro[pyrrolidine-3,6′-pyrrolo[2,3-d]pyrimidine]-2,5-dione]	79.2	0.0134				
O=C1CC2(Cc3cnc(Nc4ccc(OCCN5CCCC5)c(F)c4)nc3N2C2CCCC2)C(=O)N1 (stereo not drawn) [Compound C91, 7′-cyclopentyl-2′-((3-fluoro-4-(2-(pyrrolidin-1-yl)ethoxy)phenyl)amino)-5′,7′-dihydrospiro[pyrrolidine-3,6′-pyrrolo[2,3-d]pyrimidine]-2,5-dione]	239	0.0554				
O=C1NCCC12Cc1cnc(Nc3ccc(N4CCNCC4)cc3F)nc1N2C1CCCC1 (stereo not drawn) [Compound C50, 7′-cyclopentyl-2′-((2-fluoro-4-(piperazin-1-yl)phenyl)amino)-5′,7′-dihydrospiro[pyrrolidine-3,6′-pyrrolo[2,3-d]pyrimidin]-2-one]	4210	0.888				
CN1CCC2(Cc3cnc(Nc4ccc(N5CCNCC5)cc4)nc3N2C2CCCC2)C1=O (stereo not drawn) [Compound C2, 7′-cyclopentyl-1-methyl-2′-((4-(piperazin-1-yl)phenyl)amino)-5′,7′-dihydrospiro[pyrrolidine-3,6′-pyrrolo[2,3-d]pyrimidin]-2-one]	23800	5.16				
CN1CCC2(Cc3cnc(Nc4cc(C(F)(F)F)c(N5CCNCC5)cn4)nc3N2C2CCCC2)C1=O (stereo not drawn) [Compound C15, 7′-cyclopentyl-1-methyl-2′-((5-(piperazin-1-yl)-4-(trifluoromethyl)pyridin-2-yl)amino)-5′,7′-dihydrospiro[pyrrolidine-3,6′-pyrrolo[2,3-d]pyrimidin]-2-one]	> 30000	> 30				
CN1CCN(c2cnc(Nc3ncc4c(n3)N(C3CCCC3)C3(CCN(C)C3=O)C4)cc2C(F)(F)F)CC1 (stereo not drawn) [Compound C13, 7′-cyclopentyl-1-methyl-2′-((5-(4-methylpiperazin-1-yl)-4-(trifluoromethyl)pyridin-2-yl)amino)-5′,7′-dihydrospiro[pyrrolidine-3,6′-pyrrolo[2,3-d]pyrimidin]-2-one]	> 30000	> 30				
CC(C)N1CCN(c2ccc(Nc3ncc4c(n3)N(C3CCCC3)C3(CC(=O)NC3=O)C4)cn2)CC1 (stereo not drawn) [Compound C85, 7′-cyclopentyl-2′-((6-(4-isopropylpiperazin-1-yl)pyridin-3-yl)amino)-5′,7′-dihydrospiro[pyrrolidine-3,6′-pyrrolo[2,3-d]pyrimidine]-2,5-dione]	214	0.0489				
